The record followed here is patent US20250170099A1, “TREATMENT OF POSTNATAL DEPRESSION” (GH RESEARCH IRELAND LIMITED, priority 2022, published 2025).

A short description of data set [1]: Pharmacokinetics of 5-MeO-DMT and bufotenine after inhalation. In kind it is in vivo, human. To be noted: within 1 to 4 hours.
Data set [2] deals with Salmonella typhimurium TA98, TA100, TA1535, TA1537 and Escherichia coli WP2 uvrA pKM101. Nature of the data set: Bacterial mutation test. Format: cell-based. The protocol:
These conditions included treatments at concentrations up to 5000 μg/plate (the maximum recommended concentration according to current regulatory guidelines), in the absence and in the presence of a rat liver metabolic activation system (S-9).

As to `COc1ccc2[nH]cc(CCN(C)C)c2c1` [5-MeO-DMT], the “accumulation upon repeated administration” value in data set [1] is “No accumulation”. The “in vitro genotoxicity assessment” value in data set [2] is “negative”. Also, the mutation induction result in data set [2] (up to 5000 μg/plate, without and with S-9) is recorded as “did not induce mutation”.
